Experiments:
[1] = tested on: ChAT immunoreactivity (cholinergic amacrine neurones) in the siderotic retina; assay: ChAT immunofluorescence of the retina after experimental siderosis; type: in vivo, Wistar rat; conditions: 0.5 nmole i.v.i. 60 minutes before siderosis; 25 nmole FeSO4 for 5 days
Protocol: (§2) Iron toxicity and the formation of .OH were stimulated by an intravitreous application of FeSO4 with or without the presence of the test compounds FA and/or TMP. For the dose-response iron toxicity experiments, 24 mM (72 nmoles), 8 mM (24 nmoles) and 0.8 mM (2.4 nmoles) of FeSO4 were utilized. To test drug biochemical effects on the oxidative stress caused by the experimental siderosis, an intravitreous injection of FA (100 mM) was carried out 60 minutes before siderosis. In further electro-physiological and immuohistochemical studies, with or without pre-administration of 0.5 or 0.1 nmoles of FA/TMP, a medium amount of FeSO4 (25 nmole) was chosen to induce damage due to such as an oxidative stress so as not to reach the maximal pharmacological effect.
The time course of the experiments involved enucleation of the rat eyes and retrieval of the retinal pieces on day 1 (Western blot), day 5 (immunohistochemistry) and day 28 (histopathology) after experimental siderosis with/without each test compound.
For immunohistochemical analysis, rats were intracardially perfused first with 0.9% saline and then with 4% (w/v) paraformaldehyde. […] In order to observe the expression of ‘ROS-related enzymes’, retinal sections were incubated with primary antibody: rabbit polyclonal anti-rat manganese SOD (1:100; Upstate, NY) or rabbit anti-catalase (1:1000; Calbiochem, CA). […]

[2] = tested on: rats subjected to 60 min retinal ischaemia plus reperfusion (I/R); assay: Flash ERG b-wave ratio after 60 min HIOP-induced retinal ischaemia plus reperfusion; type: in vivo, Wistar rat
Description: Six-week old Wistar rats (body weight: 250˜500 g) were anaesthetized with an intramuscular injection of ketamine and xylazine as described above and placed in a stereotaxic frame. The anterior chamber of one eye, with the other serving as control, was cannulated with a 30-gauge needle connected to a 0.9% saline reservoir; this caused an increase in IOP to 120 mmHg. A whitening of the iris and the fundus of the retina confirmed induction of an ischaemic insult (Block, F., et al. Gen Pharmacol. 30(3):281-7, 1997).
(§1) For electro-physiological, immuohistochemical, and molecular biological studies, drug administration was carried out with pre-administration (60 minutes before HIOP) of vehicle (saline for FA/TMP), FA (0.5 or 0.1 nmole), or TMP (0.5 nmole). The 60-minute HIOP procedure to induce ischaemic damage was carried out as defined. Intra-vitreous injection (i.v.i.) of 5 μl of each compound was given to the ‘ischaemic’ eye of each test rat using a 30-gauge needle attached to a 20 μl Hamilton syringe. As a control, the same volume of vehicle was intravitreously injected into the “ischaemic” eye of each control rat. In both cases, the fellow untreated eye acted as a normal control eye. In this case, FA, TMP, or vehicle was applied only to the eye (ipsilateral) which received ischaemia. Dose-response experiments for FA will also be performed.

[3] = tested on: Thy-1 immunoreactivity (retinal ganglion cells) in the ischaemic retina; assay: Thy-1 immunofluorescence of the retina after ischaemia/reperfusion; type: in vivo, Wistar rat; conditions: 0.5 nmole i.v.i. pre-treatment; 7 days after I/R
Protocol: as §1
On day 7 after retinal ischaemia pre-treated with vehicle or tested compounds, the Wistar rats were killed by an overdose of sodium pentobarbitone injected into the peritoneal cavity as mentioned earlier. Rat retinas were carefully and rapidly dissected from the eyecups with the aim of completely detaching the sensory retina from the RPEs. They were incubated in Mg^2+-free Locke's buffer containing: 154 mM NaCl, 5.6 mM KCl, 2.3 mM CaCl2, 3.6 mM NaHCO3, 5 mM N-[2-hydroxyethyl]piperazine-N′-[2-ethanesulfonic acid] (HEPES) and 5.6 mM D-glucose. […]

Thy-1 mRNA = assay: Semi-quantitative RT-PCR of Thy-1 mRNA in the retina after ischaemia/reperfusion; type: in vivo, Wistar rat; conditions: 7 days after I/R, sham operation 100.0000, n=4
Protocol: as §1
Levels of Thy-1 mRNAs present in the retinas were determined using a semi-quantitative RT-PCR technique. These were compared with the mRNA levels measured for the house-keeping gene β-actin as an internal standard (Nucci, C., et al. Invest Opthalmol V is Sci. 48(7):2997-3004, 2007). Seven days after sham operation alone or retinal ischaemia pre-treated with vehicle or defined chemicals, the rats were killed and the retinas removed and sonicated in TriReagent (as per manufacturer's instructions). Total retinal RNA was isolated and first strand cDNA synthesis was performed on 4 μg DNase-treated RNA (Nash, M. S., et al. Invest. Opthalmol. Vis. Sci. 40:1293-8, 1999). […]
The PCR reaction products were separated on 1.5% agarose gels using ethidium bromide for visualization. The relative abundance of each PCR product was determined by analyzing photographs of the gels by SigmaScan (Jandel Scientific, Corte Madera, Calif.). […]

hydroxyl radicals (.OH) [4] = assay: ROS assay in vivo (2,3-DHBA by vitreous microdialysis) in experimental siderosis
Protocol: Iron toxicity and the formation of .OH were stimulated by an intravitreous application of FeSO4 with or without the presence of the test compounds FA and/or TMP. For the dose-response iron toxicity experiments, 24 mM (72 nmoles), 8 mM (24 nmoles) and 0.8 mM (2.4 nmoles) of FeSO4 were utilized. To test drug biochemical effects on the oxidative stress caused by the experimental siderosis, an intravitreous injection of FA (100 mM) was carried out 60 minutes before siderosis.
Trapping of hydroxyl radicals was accomplished by perfusing physiological saline containing 5 mM salicylic acid through a microdialysis probe (CMA/12, PC 14/01, CMA/Microdialysis, Stockholm, Sweden) inserted into the vitreous cavity of a rat eye after intra-vitreous implantation of either an iron or acrylate chip for the defined chronic model and its control. […] Salicylate was infused at the rate of 1.1 μl/min using a 1-ml Exmire microsyringe attached to a microdialysis pump (CMA-100, CMA/Microdialysis, Stockholm, Sweden). This was carried out every 15 or 20 minutes starting either 60 or 20 minutes before the implantation/injection and continued for 6 hours or 120 minutes following treatment, respectively. […] The hydroxyl radicals were quantified by using 8, 16, 24, 32 and 40 pmoles of 2,3-DHBA (which is photosensitive and can be dissolved in ethanol) as an internal standard.

[5] = tested on: rats given experimental siderosis; assay: Flash ERG in experimental siderosis (intravitreous FeSO4 or iron particle); conditions: for Effect on FeSO4 induced reduction in the b-wave amplitudes: 0.5 or 0.1 nmoles pre-administered, 25 nmole FeSO4, 3 and 5 days after siderosis, vs saline-treated animals
Protocol: The animals were first dark adapted for at least 8 hours, anaesthetized as already described and the pupils dilated with 1% tropicamide and 2.5% phenylephrine. The animal was then placed in a stereotaxic frame and the body temperature maintained at 37° C. with an electrical blanket. A platinum wire loop was placed on the corneal surface to act as the recording electrode. A ground electrode was connected to the scruff of the back together with a reference electrode to the tongue of the animal. A strobe was placed 5 cm in front of the animal to provide a stimulus of 0.5 Hz. Fifteen consecutive responses were recorded at two-second intervals and at 10 kHz; the responses were amplified and averaged using an amplifier P511/regulated power supply RPS107/stimulator PS22 (Grass-Telefactor, Astro-Med. Inc., R1, USA). The a-wave amplitude was measured from the baseline to the trough of the a-wave and the b-wave amplitude was measured from the trough of the a-wave to the peak of the b-wave.
The Wistar rats were anesthetized with an intramuscular injection of ketamine (100 mg/kg) and xylazine (5 mg/kg), and placed in a stereotaxic frame. The chronic model of experimental siderosis was established as follows. Through a port punctured by a 20-gauge intravenous catheter (0.5 mm from the corneal limbus), an autoclaved defined iron particle was slowly and carefully implanted into the vitreous cavity of one eye of each experimental rat through the catheter sheath by the catheter inner shaft (a needle). The punctured wound was then sutured with sterilized 10-0 nylon to keep a close system. Similarly (0.5 mm from the corneal limbus) and guided by the 20-gauge intravenous catheter, an autoclaved acrylate chip was implanted into the vitreous cavity of one eye of each control rat.
Similarly, the acute model of experimental siderosis was set up utilizing various concentrations of iron sulfate with the control group being injected with saline. The animals were kept normothermic with a heated water jacket after anesthesia and were placed on an electrical blanket during recovery (both set at 37° C.).
as §2

hydroxyl radicals (.OH) [6] = assay: Salicylate trapping / vitreous microdialysis of hydroxyl radicals (2,3-DHBA) in HIOP-induced retinal ischaemia; type: in vivo, Wistar rat; conditions: for Levels of 2,3-DHBA (.OH) in vitreous dialysate: at 60 minutes of HIOP-induced retinal ischaemia, n=4
Description: Rats were anesthetized and placed in a stereotaxic frame. This approach was adapted from Louzada-Junior et al with further modification. The microdilaysis tube was inserted into the vitreous cavity through the nonvascular pars plana of the sclera (0.5 mm from the corneal limbus) after it had been pre-punctured with a 25-gauge needle. This avoided the problem of bleeding into the vitreous cavity with consequent contamination of vitreous. With the microdialysis probe in position, the whole retina was subjected to HIOP-induced ischaemia for 120 minutes.
After an equilibration period of 45 min, a stable baseline was obtained. HIOP-induced retinal ischaemia was then performed. Samples were collected every 15 minutes starting 45 minutes before ischaemia and continuing for the subsequent 120-minute ischaemia. The microdialysates collected from the microdialysis probe were deposited into polyethylene vials (Microbiotech, Stockholm, Sweden) containing 15 μl of 0.1 M perchloric acid and were stored at −70° C. until analysis. The formation of .OH was quantified as the increase in 2,3-DHBA, which is the hydroxylative product of salicylic acid. Since 2,5-DHBA can also be produced via enzymatic pathways by virtue of P-450, 2,3-DHBA is considered to be a specific marker of .OH. Eluted microdialysates were directly injected into and 2,3-DHBA was analyzed by a high performance liquid chromatograph coupled with an electrochemical detector (HPLC-EC; Model LC-4C, Bioanalytical System Inc., West Lafayette, IN, USA).
The DHBA compound was oxidized using a glassy carbon working electrode (oxidation potential: +750 mV; model MF 1000, Bioanalytical System Inc., West Lafayette, IN, USA) and an Ag/AgCl reference electrode (model MW 2021, Bioanalytical System Inc., West Lafayette, IN, USA) with a special thin-layer gasket for the microbore LC-EC. In order to minimize dead volume, the column was connected directly between the micro-sampler and the working electrode. The mobile phase included 1-heptane sulfonic acid sodium salt (MW: 202.25) 3.15 g, EDTA 0.15 g, phosphoric acid 4.5 ml, triethylamine 5.25 ml, acetonitrile 255 ml, distilled water (added to 1.5 liters), pH 2.7. […] This is the first invention utilizing the defined modified microdialysis system for the measurement of .OH in the rat eye in vivo.
For electro-physiological, immuohistochemical, and molecular biological studies, drug administration was carried out with pre-administration (60 minutes before HIOP) of vehicle (saline for FA/TMP), FA (0.5 or 0.1 nmole), or TMP (0.5 nmole). The 60-minute HIOP procedure to induce ischaemic damage was carried out as defined. Intra-vitreous injection (i.v.i.) of 5 μl of each compound was given to the ‘ischaemic’ eye of each test rat using a 30-gauge needle attached to a 20 μl Hamilton syringe. […]

[7] = tested on: ChAT immunoreactivity (cholinergic amacrine cells) in the ischaemic retina; assay: ChAT immunofluorescence of the retina after ischaemia/reperfusion; type: in vivo, Wistar rat; conditions: 7 days reperfusion
Protocol: On day 7 after retinal ischaemia pre-treated with vehicle or tested compounds, the Wistar rats were killed by an overdose of sodium pentobarbitone injected into the peritoneal cavity as mentioned earlier. Rat retinas were carefully and rapidly dissected from the eyecups with the aim of completely detaching the sensory retina from the RPEs. They were incubated in Mg^2+-free Locke's buffer containing: 154 mM NaCl, 5.6 mM KCl, 2.3 mM CaCl2, 3.6 mM NaHCO3, 5 mM N-[2-hydroxyethyl]piperazine-N′-[2-ethanesulfonic acid] (HEPES) and 5.6 mM D-glucose. The Locke's solution was briefly equilibrated before use with a gas mixture of 95% O2 and 5% CO2 at 37° C., pH 7.4. Retinal pieces were fixed for a further 45 minutes in 4% (w/v) paraformaldehyde in sodium phosphate buffer (0.2 M NaH2PO4.2H2O; 0.2M Na2HPO4; pH 7.4) and then transferred to 30% sucrose in sodium phosphate buffer for cryosectioning. Retinas were orientated and similarly mounted on a metal stand using O.C.T. compound (Merck Ltd) and then promptly frozen with dry ice. In this way, sections from similar areas were produced and thus the retinal sections (10 μm) had approximately the same eccentricity, which allowed direct comparison. […]

cortical cells = conditions: 40 μM FeSO4 vs saline; n=5
Protocol: The cortical cells to be tested were placed on a cover slip and loaded with calcium ion sensitive dye by incubation with a final concentration of 5 μM of the acetoxymethyl ester form of Fura-2 for 30 min at 37° C. in the 1 ml loading buffer. The cover slip was washed three times with buffer containing 150 mM NaCl, 5 mM KCl, 2.2 mM CaCl2, 1 mM MgCl2, 5 mM glucose, 10 mM HEPES, pH 7.4. A micropipette was pulled from a glass capillary by a micropipette puller (P-97, Sutter Instrument Co.) and the tip was polished in a microforge (o.d. 2 μm, MF-83, Narishige). The micropipette was backfilled with the test compound (40 μM FeSO4 or saline) using a fine tip syringe. The cover slip was mounted on an inverted microscope to measure single-cell fluorescence. The ejection mircropipette was positioned at a distance of 10 μm from a cell. A short pulse (0.5s) of the test compound was then applied to a single cell through the micropipette by a microinjection system (Picospritzer II, General Valve) with a pressure of 15 psi. The intracellular calcium concentration, [Ca^2+]i, was calculated using the ratio between the fluorescence at 340 nm and at 380 nm (F340/F380). Changes in the fluorescence ratio represent the changes in the [Ca^2+]i (Yang, D. M., et al. J Microsc 209: 223-227, 2003).

[8] = tested on: glutamate release in the retina
Protocol: Using the same microdialysis system as the ROS assay in vivo, each microdialysate was assayed for the presence of derivatized glutamate product by HPLC with a fluorescence detector (FL; model CMA/280, CMA/Microdialysis, Stockholm, Sweden). The derivatization reaction was carried out at room temperature. O-phthalaldehyde (OPA; 27 mg; Fisher Scientific, Loughborough, UK) was dissolved in 1 ml methanol, 9 ml 0.4 M potassium tetraborate (MW: 303.53; borate buffer: 1.5 g borate plus pure water adjusted to pH 9.5 with 6 M NaOH and then added with water to 100 ml) and 5 μl β-mercaptoethanol (Fisher Scientific, Loughborough, UK). The OPA stock reagent was covered in foil and stored at −20° C. for 1 month. The OPA working solution was prepared each day by diluting 1 ml of the OPA stock reagent with 3 ml of potassium tetraborate (0.4 M). […] For the HPLC separation, the detector output voltage (signal) was monitored using one data system (Scientific Information Service Corporation, Taiwan). […]
Before use, the mobile phase was filtered through a 0.22 μm filter (Millipore) using vacuum assistance. […] The detection sensitivity was 10 M. All standard samples and test samples were analyzed in duplicate.

[9] = 0.5 nmole i.v.i. 60 min before 60 min HIOP, 3 days after I/R
[10] = 0.5 nmole i.v.i. 60 min before 60 min HIOP, 5 days after I/R
[11] = 0.5 nmole i.v.i. 60 min before 60 min HIOP, 7 days after I/R
[12] = 0.5 nmole i.v.i. 1 hour before ischaemia
[13] = 0.5 nmole i.v.i. 60 min before ischaemia
[14] = FeSO4 injected five days earlier, particular example

COc1cc(/C=C/C(=O)O)ccc1O [FA, ferulic acid]
Effect on iron-induced changes in ChAT immunoreactivity [1]: counteracted
ERG b-wave ratio (ischaemic eye vs contralateral normal eye) ([2]; 0.1 nmole i.v.i. 60 min before 60 min HIOP, 3 days after I/R): 32.2402±6.3012
ERG b-wave ratio (ischaemic eye vs contralateral normal eye) ([2]; 0.1 nmole i.v.i. 60 min before 60 min HIOP, 5 days after I/R): 35.0948±4.6412
ERG b-wave ratio (ischaemic eye vs contralateral normal eye) ([2]; 0.1 nmole i.v.i. 60 min before 60 min HIOP, 7 days after I/R): 47.0775±5.5396
ERG b-wave ratio (ischaemic eye vs contralateral normal eye) [2, 9]: 48.3576±3.1633
ERG b-wave ratio (ischaemic eye vs contralateral normal eye) [2, 10]: 56.4287±6.9891
ERG b-wave ratio (ischaemic eye vs contralateral normal eye) [2, 11]: 65.8600±6.0998
Attenuation of ischaemia-induced reduction in thickness of Thy-1 immunolabeling [3]: around 15%
Thy-1 mRNA/β-actin mRNA ratio (Thy-1 mRNA; 0.1 nmole i.v.i. 1 hour before ischaemia): 65.8968±11.9579
Thy-1 mRNA/β-actin mRNA ratio (Thy-1 mRNA; [12]): 85.1745±10.3177
Effect on production of OH (2,3-DHBA) in siderosis (hydroxyl radicals (.OH) [4]; 100 μM, siderotic rats insulted by 8 mM FeSO4, vs saline): significantly decreased
Effect on formation of .OH (2,3-DHBA) in siderosis (hydroxyl radicals (.OH) [4]; i.v.i. 60 minutes before siderosis, 8 mM FeSO4): dose-dependently and significantly decreased
Effect on FeSO4 induced reduction in the b-wave amplitudes [5]: significantly alleviated
Levels of 2,3-DHBA (.OH) in vitreous dialysate (hydroxyl radicals (.OH) [6]; 0.1 nmole pre-treatment): 3.48 pmol/15 µL perfusate
Attenuation of ischaemia-evoked increased 2,3-DHBA levels (hydroxyl radicals (.OH) [6]; 0.5 nmole pre-treatment, 60 minutes of ischaemia, vs vehicle-pre-treated ischaemic eyes): around 2 folds
Levels of 2,3-DHBA (.OH) in vitreous dialysate (hydroxyl radicals (.OH) [6]; 0.5 nmole pre-treatment): 2.8574±0.7186 pmole/15 μl perfusate
Effect on I/R-induced changes in ChAT immunoreactivity ([7]; 0.1 nmole i.v.i. 60 min before ischaemia): only a partial counteracting effect
Effect on I/R-induced changes in ChAT immunoreactivity [7, 13]: obviously nullified

Cc1nc(C)c(C)nc1C [TMP, tetramethylpyrazine]
ERG b-wave ratio (ischaemic eye vs contralateral normal eye) [2, 9]: 17.9250±11.7135
ERG b-wave ratio (ischaemic eye vs contralateral normal eye) [2, 10]: 17.1500±6.8996
ERG b-wave ratio (ischaemic eye vs contralateral normal eye) [2, 11]: 20.1750±8.5027
Thy-1 mRNA/β-actin mRNA ratio (Thy-1 mRNA; [12]): 46.5876±14.4476
Effect on FeSO4 induced reduction in the b-wave amplitudes [5]: tended to alleviate
Levels of 2,3-DHBA (.OH) in vitreous dialysate (hydroxyl radicals (.OH) [6]; 0.5 nmole pre-treatment): 4.6865±1.2661 pmole/15 μl perfusate
Effect on I/R-induced changes in ChAT immunoreactivity [7, 13]: not affected

ferrous sulfate [FeSO4]
2,3-DHBA formed (hydroxyl radicals (.OH) [4]; 20 minutes after injection of 8 mM FeSO4): 91.23 pmol
Change in [Ca^2+]i (fura-2 ratio F340/F380) (cortical cells): significant increase
ERG b-wave ratio after intravitreous FeSO4 ([5]; 8 mM FeSO4 (3 μl) intravitreous, at 2 hours): about 45%
ERG a-wave ratio of siderotic eye to normal fellow eye [5, 14]: 40.56%
ERG b-wave ratio of siderotic eye to normal fellow eye [5, 14]: 30.70%
Glutamate release in the retina ([8]; 24 mM and/or 8 mM FeSO4, peaks 20 and 40 minutes after siderosis, vs saline): dose-dependent release of glutamate
Glutamate concentration in vitreous dialysate ([8]; 20 minutes after ferrous sulfate treatment (8 mM)): 722 nM
